According to patent US9365556B2, “3,5-diaminopyrazole kinase inhibitors” (Axikin Pharmaceuticals, Inc., priority 2012, dated 2016):

What was measured:
[1] = target: T1, kinase domain protein of RC kinase (Homo sapiens, UniProt Q56UN5); assay: Enzymatic assay for kinase inhibitory activity (Crebtide substrate, LANCE read-out); type: biochemical; conditions: compound at 1 μM
T1 sequence (Q56UN5 1061-1324 limits assumed): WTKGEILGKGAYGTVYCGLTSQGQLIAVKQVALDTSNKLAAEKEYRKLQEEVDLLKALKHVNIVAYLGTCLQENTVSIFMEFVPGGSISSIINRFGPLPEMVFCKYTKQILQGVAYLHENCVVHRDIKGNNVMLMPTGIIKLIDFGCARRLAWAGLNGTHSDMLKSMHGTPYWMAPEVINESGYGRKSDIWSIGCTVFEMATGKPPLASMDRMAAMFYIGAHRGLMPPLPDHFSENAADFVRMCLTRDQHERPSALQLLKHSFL
Procedure, shortened: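 Compound tested at 1 μM final in HEPES/MgCl2/DTT buffer with 50 nM Crebtide and kinase domain at 1 μM ATP; full-length kinase at 3 μM ATP after 45 min preincubation. Reaction 45 min at room temperature, stopped with EDTA, read by LANCE TR-FRET (665/615 nm). Activity binned as % inhibition at 1 μM.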

Row | Structure (SMILES) | inhibition at 1 µM [1] [%] | melting point [°C]
1 | COc1ccccc1/C=N/c1[nH]nc(Nc2ccc(Cl)cc2)c1C(N)=O [Compound B34] | ≤ 5 | 270 to 273
2 | NC(=O)c1c(Nc2ccccc2Cl)n[nH]c1/N=C/c1ccc(O)c([N+](=O)[O-])c1 [Compound B113] | 5 to 20 | 301 to 304
3 | NC(=O)c1c(Nc2ccccc2Cl)n[nH]c1/N=C/c1ccc([N+](=O)[O-])c(O)c1 [Compound B114] | 20 to 50 | 294 to 296
4 | NC(=O)c1c(Nc2ccccc2Cl)n[nH]c1/N=C/c1ccc(O)cc1 [Compound B117] | ≥ 50 | 254 to 258
5 | COc1ccc(/C=N/c2[nH]nc(Nc3ccccc3Cl)c2C(N)=O)cc1[N+](=O)[O-] [Compound B118] | 5 to 20 | 304 to 306
6 | COc1ccc(/C=N/c2[nH]nc(Nc3ccccc3Cl)c2C(N)=O)c(O)c1 [Compound B119] | 5 to 20 | 267 to 270
7 | COc1ccc(/C=N/c2[nH]nc(Nc3ccccc3Cl)c2C(N)=O)cc1 [Compound B120] | ≥ 50 | 288 to 292
8 | NC(=O)c1c(Nc2cccnc2)n[nH]c1/N=C/c1ccc(O)cc1 [Compound B121, 5-((4-hydroxybenzylidene)amino)-3-(pyridin-3-ylamino)-1H-pyrazole-4-carboxamide] | ≥ 50 | 306 to 309

Continued, values first:

Row | inhibition at 1 µM [1] [%] | melting point [°C] | Structure (SMILES)
9 | ≥ 50 | 220 to 225 | NC(=O)c1c(Nc2cccc(Cl)c2)n[nH]c1/N=C/c1ccc(O)cc1O [Compound B30]
10 | ≤ 5 | 279 to 283 | COc1cccc(/C=N/c2[nH]nc(Nc3ccc(Cl)cc3)c2C(N)=O)c1 [Compound B33]
11 | ≥ 50 | 243 to 246 | NC(=O)c1c(Nc2ccc(Cl)cc2)n[nH]c1/N=C/c1ccc(O)cc1O [Compound B36]
12 | 5 to 20 | 281 to 283 | NC(=O)c1c(Nc2cccc(Cl)c2)n[nH]c1/N=C/c1cc(Br)ccc1O [Compound B49, 5-((5-bromo-2-hydroxybenzylidene)amino)-3-((3-chlorophenyl)amino)-1H-pyrazole-4-carboxamide]
13 | 5 to 20 | 283 to 287 | NC(=O)c1c(Nc2cccc(Cl)c2)n[nH]c1/N=C/c1cc(Cl)ccc1O [Compound B50]
14 | 5 to 20 | 271 to 274 | COc1cccc(/C=N/c2[nH]nc(Nc3cccc(Cl)c3)c2C(N)=O)c1O [Compound B53]
15 | 5 to 20 | 284 to 286 | NC(=O)c1c(Nc2cccc(Cl)c2)n[nH]c1/N=C/c1ccccc1O [Compound B54]
16 | 20 to 50 | 295 to 298 | COc1ccc(/C=N/c2[nH]nc(Nc3cccc(Cl)c3)c2C(N)=O)cc1 [Compound B122]
